What was measured:
TRPV1 channel = test system: TRPV1 channel; design: method as in 4 sources, ref [12]; anandamide and 2-AG ref [13],[14],[15],[16] ||| ref [88],[89] = [88]; PMID 27281200; doi:10.1038/nature17964; 88. Gao Y. Cao E. Julius D. Cheng Y. TRPV1 structures in nanodiscs reveal mechanisms of ligand and lipid action Nature 2016 534 347 351 10.1038/nature17964 27281200 PMC4911334 || [89]; PMID 37117175; doi:10.1038/s41467-023-38162-9; 89. Neuberger A. Oda M. Nikolaev Y.A. Nadezhdin K.D. Gracheva E.O. Bagriantsev S.N. Sobolevsky A.I. Human TRPV1 structure and inhibition by the analgesic SB-366791 Nat. Commun. 2023 14 2451 10.1038/s4 ||| ref [90] = [90]; PMID 38698206; doi:10.1038/s41594-024-01299-2; 90. Arnold W.R. Mancino A. Moss F.R. Frost A. Julius D. Cheng Y. Structural basis of TRPV1 modulation by endogenous bioactive lipids Nat. Struct. Mol. Biol. 2024 1 9 10.1038/s41594-024-01299-2 3869820 ||| ref [67] = [67]; PMID 29117570; doi:10.1016/j.celrep.2017.10.063; 67. Nersesyan Y. Demirkhanyan L. Cabezas-Bratesco D. Oakes V. Kusuda R. Dawson T. Sun X. Cao C. Cohen A.M. Chelluboina B. Oxytocin Modulates Nociception as an Agonist of Pain-Sensing TRPV1 Cell Rep. 2; conditions: cited from earlier work
Excerpt: The transient receptor potential (TRP) channels family involves several subfamilies, including the vanilloid (TRPVs) group. TRPV1, a member of the TRPV subfamily, is a non-selective cationic homotetramer channel. It is known to be activated by various stimuli, including temperature, capsaicin (the principal compound in chili peppers), and endocannabinoids such as anandamide (AEA) and 2-arachidonoylglycerol (2-AG). The TRPV1 channel protein is found in the central (CNS) and peripheral nervous system (PNS). In the CNS, TRPV1 is expressed in the prefrontal cort ... || Molecular dynamics (MD) simulations allow studying protein dynamics at an atomic level under physiological conditions, enhancing our understanding of various proteins, including ion channels like TRPV1 [82]. These simulations provide insight into their function, conformational changes, and interactions with different ligands.

human TRPV1 channel [1] = biological target: T1, human TRPV1 channel (Homo sapiens, UniProt Q8NER1); test: Whole-cell voltage-clamp recording of TRPV1 currents, HEK293 cells with human TRPV1-GFP; type: cell-based; conditions: 1 µM Cap; voltage ramp -80 to 80 mV, +80 mV; n: 7; **** p < 0.0001; room temperature
T1 construct: host or cells: HEK293
T1 sequence (Q8NER1 whole entry): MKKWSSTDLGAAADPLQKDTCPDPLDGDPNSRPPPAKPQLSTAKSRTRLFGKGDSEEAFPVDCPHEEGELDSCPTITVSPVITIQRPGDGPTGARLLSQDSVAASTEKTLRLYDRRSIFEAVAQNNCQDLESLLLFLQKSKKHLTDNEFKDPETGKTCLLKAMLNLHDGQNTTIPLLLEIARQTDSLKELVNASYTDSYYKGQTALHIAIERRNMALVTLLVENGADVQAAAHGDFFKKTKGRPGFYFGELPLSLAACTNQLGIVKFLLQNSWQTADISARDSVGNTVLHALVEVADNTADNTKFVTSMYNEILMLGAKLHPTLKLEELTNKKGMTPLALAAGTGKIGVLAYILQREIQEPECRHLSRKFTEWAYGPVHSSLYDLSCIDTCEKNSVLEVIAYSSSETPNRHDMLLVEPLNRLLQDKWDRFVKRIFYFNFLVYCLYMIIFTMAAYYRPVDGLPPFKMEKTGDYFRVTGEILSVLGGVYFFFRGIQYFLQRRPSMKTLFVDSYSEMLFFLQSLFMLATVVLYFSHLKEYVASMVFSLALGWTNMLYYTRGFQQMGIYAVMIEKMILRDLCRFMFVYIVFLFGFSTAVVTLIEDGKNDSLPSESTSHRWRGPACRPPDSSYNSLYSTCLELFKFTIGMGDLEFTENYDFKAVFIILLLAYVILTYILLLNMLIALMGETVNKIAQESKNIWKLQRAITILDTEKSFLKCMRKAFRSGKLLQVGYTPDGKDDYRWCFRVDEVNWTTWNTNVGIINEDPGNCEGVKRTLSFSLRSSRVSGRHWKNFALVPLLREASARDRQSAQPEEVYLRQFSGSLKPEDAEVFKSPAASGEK
Method: (§1) Dr. Alejandro Maureira, Universidad Católica del Maule, Chile, generously provided HEK293 cells. The cells were cultured in T75 flasks (Corning Inc., Corning, NY, USA) in a humidified atmosphere at 37 °C with 5% CO2 in Dulbecco’s Modified Eagle Medium (DMEM) with high glucose (Cytiva, Marlborough, MA, USA), supplemented with 10% fetal bovine serum (Cytiva, Marlborough, MA, USA) and a mixture of 100 IU/mL penicillin and 100 µg/mL streptomycin (Corning Inc., Corning, NY, USA) in a CO2CELL incubator (MMM Group, Munich, Germany). This procedure was used to maintain the cells for all of the experiments.
(§2) HEK293 cells were transfected with the human TRPV1 channel coupled to GFP in its C-terminus (TRPV1-GFP, catalog #: RG217653, Origene, Rockville, MD, USA). […] Transfections were conducted using Lipofectamine 3000 (Invitrogen, Waltham, MA, USA), according to the manufacturer’s instructions. Experimental protocols were performed 24 h post-transfection.
Untransfected and transfected HEK293 cells with the human TRPV1-GFP were recorded using a whole-cell voltage clamp. Cells were cultured in 15 mm round coverslips pretreated with 0.1 mg/mL poly-L-lysine (Gibco, Billings, MT, USA) and transfected with TRPV1-GFP plasmid. TRPV1-GFP-positive cells were identified using a 405 nm LED light in a Nikon Eclipse Ts2 inverted microscope. Borosilicate pipettes (nº 1B150F-4, World Precision Instruments, Sarasota, FL, USA) of 2.8’5 MΩ were used. Pipettes were pulled with a P-97 Micropipette Puller (Sutter Instruments, Novato, CA, USA). The extracellular solution contained (in mM) 140 NaCl, 5 KCl, 2 CaCl2, 1 MgCl2, 10 HEPES, and 6 glucose at pH 7.4. The internal solution contained (in mM) 140 CsCl, 4 MgCl2, 10 EGTA, and 10 HEPES-CsOH at pH 7.3. All the experiments were recorded using a HEKA EPC9 amplifier. The holding potential was −80 mV. A 500 ms voltage ramp from −80 to 80 mV was applied to record TRPV1 currents. The sample frequency was 50 kHz, and the signals were filtered at 2.9 kHz using PatchMaster software. Data were analyzed using Clampfit v.7 software (Molecular Devices, San Jose, CA, USA). The extracellular solution and ligands were administered using a VC-8 perfusion system (~2 mL/s, Warner Instruments, Holliston, MA, USA). We used capsaicin (Cayman Chemicals, nº 92350), SB366791 (nº 11019, Cayman Chemicals, Ann Arbor, MI, USA), and RVD-Hp (Synbio Technologies, Monmouth Junction, NJ, USA). We used dimethyl sulfoxide (DMSO, Sigma-Aldrich, St. Louis, MO, USA) and untransfected cells as controls. Electrophysiological recordings were performed at room temperature.
(§3) The data were analyzed and plotted using GraphPad software v10.0.2. We used the Shapiro–Wilk test to determine the data distribution. […] Statistically significant values were considered when p values were * p < 0.05, ** p < 0.01, *** p < 0.001, and **** p < 0.0001.

[2] = test system: untransfected HEK293 cells; test: Whole-cell voltage-clamp recording, untransfected HEK293 cells; type: cell-based; conditions: 1 µM Cap; voltage ramp -80 to 80 mV; room temperature
Method: as §1
Untransfected and transfected HEK293 cells with the human TRPV1-GFP were recorded using a whole-cell voltage clamp. Cells were cultured in 15 mm round coverslips pretreated with 0.1 mg/mL poly-L-lysine (Gibco, Billings, MT, USA) and transfected with TRPV1-GFP plasmid. TRPV1-GFP-positive cells were identified using a 405 nm LED light in a Nikon Eclipse Ts2 inverted microscope. Borosilicate pipettes (nº 1B150F-4, World Precision Instruments, Sarasota, FL, USA) of 2.8’5 MΩ were used. Pipettes were pulled with a P-97 Micropipette Puller (Sutter Instruments, Novato, CA, USA). […] All the experiments were recorded using a HEKA EPC9 amplifier. […] Data were analyzed using Clampfit v.7 software (Molecular Devices, San Jose, CA, USA). […]
The data were analyzed and plotted using GraphPad software v10.0.2. […]

human TRPV1 channel [3] = biological target: T1, human TRPV1 channel; test: Calcium imaging (Fura Red-AM), HEK293 cells transfected with hTRPV1-GFP; type: cell-based; conditions: 1 µM Cap; hTRPV1-GFP HEK293; pH 7.4, room temperature; n: 58; vs DMSO **** p < 0.0001
Method: as §1, §2, §3

[4] = cited from earlier work
Excerpt: Capsaicin creams and patches have been used in the treatment of muscle pain, neuropathic pain, arthritis, and migraines. […] CNTX-4975 has been developed as a treatment option for pain in individuals with osteoarthritis.

[5] = test system: HEK293-untransfected cells; test: Calcium imaging (Fura Red-AM), untransfected HEK293 cells; type: cell-based; conditions: 1 µM Cap, confocal, pH 7.4, room temperature, n: 26
Method: Dr. Alejandro Maureira, Universidad Católica del Maule, Chile, generously provided HEK293 cells. The cells were cultured in T75 flasks (Corning Inc., Corning, NY, USA) in a humidified atmosphere at 37 °C with 5% CO2 in Dulbecco's Modified Eagle Medium (DMEM) with high glucose (Cytiva, Marlborough, MA, USA), supplemented with 10% fetal bovine serum (Cytiva, Marlborough, MA, USA) and a mixture of 100 IU/mL penicillin and 100 μg/mL streptomycin (Corning Inc., Corning, NY, USA) in a CO2CELL incubator (MMM Group, Munich, Germany). This procedure was used to maintain the cells for all of the experiments. […] Then, the cells were washed and cultured during the experiment with the extracellular solution containing (in mM) 140 NaCl, 5 KCl, 2 CaCl2, 1 MgCl2, 10 HEPES, and 6 glucose, with pH adjusted to 7.4 with NaOH [13]. Calcium images were obtained every 3 s for 30 min using Leica Stellaris 5 spectral confocal microscopy. […] Fura Red emissions in bound and unbound states were acquired around their peaks at 610 nm and 670 nm, respectively. The bound and unbound fluorescence of Fura Red-AM was acquired using Leica LAS X v.4.3.0.24308 software. The Fura Red-Am bound and unbound ratio was calculated (405 nm/488 nm) and plotted. […] The data were analyzed and plotted using GraphPad software v10.0.2. […]

thermal hyperalgesia = conditions: capsazepine administration; ref [12],[32],[33],[34]; cited from earlier work

Row | Compound | TRPV1 activation (TRPV1 channel; capsaicin ref [12], anandamide and 2-AG ref [13],[14],[15],[16]) | Cap-induced TRPV1 currents (human TRPV1 channel [1]) | TRPV1 currents in untransfected cells [2] | Intracellular Ca^2+ concentration (Fura Red ratio 405 nm/488 nm), agonist response (human TRPV1 channel [3]) | Efficacy and bioavailability in vivo [4] | Water solubility [4] | Side effects ([4]; oral administration, ref [98]) | Intracellular Ca^2+ concentration (Fura Red ratio 405 nm/488 nm) in untransfected cells [5] | TRPV1 binding mode of antagonists (TRPV1 channel; requiring four molecules to induce channel closure, ref [88],[89]) | Thermal hyperalgesia (thermal hyperalgesia)
1 | COc1cc(CNC(=O)CCCC/C=C/C(C)C)ccc1O [capsaicin] | activated | showed Cap-induced currents | did not observe TRPV1 currents | produced an increase in intracellular Ca^2+ concentration | limited efficacy and bioavailability in vivo | poor water solubility | irritation, orofacial pain, and gastric ulcers | did not induce an increase in intracellular Ca^2+ concentration | – | –
2 | Oc1cc2c(cc1O)CN(C(=S)NCCc1ccc(Cl)cc1)CCC2 [capsazepine] | – | – | – | – | – | – | – | – | bind to the vanilloid pocket and compete with capsaicin | reduces thermal hyperalgesia
